16 molecules from publication PMC9968064, “First Synthesis of DBU-Conjugated Cationic Carbohydrate Derivatives and Investigation of Their Antibacterial and Antifungal Activity” (International Journal of Molecular Sciences, 2023) can be followed below.

The MIC is the lowest concentration found to suppress growth.

Holding throughout (format): cell-based
Experiment [1] has as its system Staphylococcus aureus ssp. aureus (ATCC 6538). Description: MIC determination (antibacterial susceptibility test, CLSI / Hungarian Pharmacopeia). The following applies: for MIC: Staphylococcus aureus, ATCC6538, tested range 6.25–100 µg/mL; for MIC Staphylococcus aureus (ATCC 6538): tested range 6.25–100 µg/mL. As to the method: (§1) The antimicrobial activity of twenty-two cationic hexopyranoside-amidinium salts (3, 10, 11, 12, 21, 22, 23, 24, 29, 30, 32, 37, 38, 45, 46, 47, 48, 49, 50, 51, 52 and 53) were compared in susceptibility tests (Table 2). The effectiveness of all compounds was tested on Staphylococcus aureus ssp. aureus (ATCC 6538), Escherichia coli (ATCC 8739) and Candida albicans (ATCC 10231). We tested the antimicrobial activity of the compounds at the concentration range of 6.25–100 µg/mL.
(§2) The detection of the antibacterial and antifungal effects of the tested compounds and the determination of the minimum inhibitory concentration (MIC) were carried out based on the method of CLSI [48] and Hungarian Pharmacopeia (chapters VIII. 2.6.12–13.).
(§3) For the antimicrobial studies, we used three human pathogens as test organisms: Candida albicans (ATCC 10231), Staphylococcus aureus subspecies aureus (ATCC 6538) and Escherichia coli (ATCC 8739).
(§4) Staphylococcus aureus subspecies aureus and Escherichia coli were cultured on tryptic soya agar (TSA) for 18–24 h at 37 °C. Candida albicans was cultured on Sabouraud dextrose agar (SDA) for 18–24 h at 37 °C. To obtain cells for suspension, we made cell suspensions from Staph. aureus, E. coli and C. albicans with the cotton swab suspension technique. The dilution of suspension was then made with 0.85% NaCl solution, absorbance being set to A600nm = 0.06. a volume of 10 μL of these suspensions contained ~4.5–6.0 × 10^4 colony forming unit (CFU) (bacteria) and ~1.5–2.0 × 10^3 CFU for yeast.
(§5) Tested agents were diluted with DMSO; the concentration of stock solutions was 4 mg/mL; and to ensure sterility, the closed sample containers were incubated at 35 °C for 1 h. The highest final concentration was 100 μg/mL.
(§6) Testing was performed in 24-well plates, and cell suspensions were prepared with 0.85% NaCl solution. Stock solutions were made from the agents with DMSO (100%). Final concentrations of used compounds were 6.25–100 µg/mL. […] After inoculation, plates were incubated at 35 °C, and results were then read visually after 18–24 h. If microbial growth could not be detected, results were read visually after 72 h. If there was no growth after 72 h, incubation was continued till the fifth day of the experiment and the results were read visually and with plate reader at 600 nm after 120 h.
(§7) The MIC value of a compound was defined as the minimal concentration that inhibits the growth of bacteria and yeasts comparing to the control. The results of the antibacterial and antifungal tests were read visually after 24, 48, 72 and 120 h. The microbial growth was measured by plate reader at 600 nm after 120 h.

In experiment [2] the test system is Escherichia coli (ATCC 8739). Described as above. The following applies: for MIC: Escherichia coli, ATCC8739, tested range 6.25–100 µg/mL; for MIC Escherichia coli (ATCC 8739): tested range 6.25–100 µg/mL. How it is done: as §1, §2, §3, §4, §5, §6, §7
Experiment [3] deals with Candida albicans (ATCC 10231). Put plainly: MIC determination (antifungal susceptibility test). The following applies: Candida albicans, ATCC10231, tested range 6.25–100 µg/mL; read-out: MIC Candida albicans (ATCC 10231). As to the method: as §1, §2, §3, §4, §5
Testing was performed in 24-well plates, and cell suspensions were prepared with 0.85% NaCl solution. Stock solutions were made from the agents with DMSO (100%). […] […] After inoculation, plates were incubated at 35 °C, and results were then read visually after 18–24 h. If microbial growth could not be detected, results were read visually after 72 h. If there was no growth after 72 h, incubation was continued till the fifth day of the experiment and the results were read visually and with plate reader at 600 nm after 120 h.
as §7

Each structure is given as a SMILES string.

With `CCS[C@H]1O[C@H](C[N+]23CCN(CC2)CC3)[C@@H](OCc2ccc3ccccc3c2)[C@@H](OC(=O)c2ccccc2)[C@H]1OC(=O)c1ccccc1` [Compound 32], the MIC in experiment [1] is 6.25 to 50 µg/mL; in experiment [2], no less than 100 µg/mL; in experiment [3] it was greater than 100 µg/mL.

For the molecule `CCS[C@H]1O[C@H](C[N+]2=C3CCCCCN3CCC2)[C@@H](OCc2ccc3ccccc3c2)[C@H](O)[C@H]1O` [Compound 46, 8-N-[ethyl 6-deoxy-6-yl-4-O-(2′-naphthyl)methyl-1-thio-α-D-glucopyranoside]-1,8-diazabicyclo(5.4.0)undec-7-ene-chloride], in experiment [1], the MIC was greater than 100 µg/mL and the “MIC Staphylococcus aureus (ATCC 6538)” value is greater than 100 µg/mL. Moreover, in experiment [2], the MIC was greater than 100 µg/mL and the “MIC Escherichia coli (ATCC 8739)” value is listed as greater than 100 µg/mL. In experiment [3], the minimal inhibitory concentration (MIC) is greater than 100 µg/mL.

As to `CCS[C@H]1O[C@H](C[N+]2=C3CCCCCN3CCC2)[C@@H](O)[C@H](O)[C@H]1O` [Compound 47, 8-N-[ethyl 6-deoxy-6-yl-1-thio-α-D-glucopyranoside]-1,8-diazabicyclo(5.4.0)undec-7-ene-chloride], in experiment [1], the MIC was greater than 100 µg/mL and the “MIC Staphylococcus aureus (ATCC 6538)” value is reported as greater than 100 µg/mL. Besides, in experiment [2], the MIC was greater than 100 µg/mL and the “MIC Escherichia coli (ATCC 8739)” value is given as greater than 100 µg/mL. In addition, in experiment [3], the MIC was greater than 100 µg/mL.

Turning to `O=C(O[C@H]1[C@@H](OCc2ccccc2)[C@H](O)[C@@H](C[N+]2=C3CCCCCN3CCC2)O[C@@H]1Sc1ccccc1)c1ccccc1` [Compound 52, 8-N-[phenyl 2-O-benzoyl-3-O-benzyl-6-deoxy-6-yl-1-thio-α-D-mannopyranoside]-1,8-diazabicyclo(5.4.0)undec-7-ene-chloride], the MIC in experiment [1], in experiment [2] and in experiment [3] was greater than 100 µg/mL in each case.

As for `CCS[C@H]1O[C@H](C[N+]2=C3CCCCCN3CCC2)[C@@H](O)[C@H](OCc2ccccc2)[C@H]1OCc1ccccc1` [Compound 48, 8-N-[ethyl 2,3-di-O-benzyl-6-deoxy-6-yl-1-thio-α-D-glucopyranoside]-1,8-diazabicyclo(5.4.0)undec-7-ene-chloride], the MIC in experiment [2] was greater than 100 µg/mL.

Molecule `CCS[C@H]1O[C@H](C[N+]2=C3CCCCCN3CCC2)[C@@H](OCc2ccc3ccccc3c2)[C@@H](OC(=O)c2ccccc2)[C@H]1OC(=O)c1ccccc1` [Compound 30] yielded an MIC in experiment [2] of no less than 100 µg/mL.

In the case of `O=C(O[C@H]1[C@H](OC(=O)c2ccccc2)[C@@H](Sc2ccccc2)O[C@H](C[N+]2=C3CCCCCN3CCC2)[C@H]1OCc1ccc2ccccc2c1)c1ccccc1` [Compound 38], the MIC in experiment [1], in experiment [2] and in experiment [3] was greater than 100 µg/mL throughout. Besides, the “MIC Staphylococcus aureus (ATCC 6538)” value in experiment [1] was greater than 100 µg/mL. In addition, the “MIC Escherichia coli (ATCC 8739)” value in experiment [2] is greater than 100 µg/mL.

As to `c1ccc(CO[C@H]2[C@H](OCc3ccccc3)[C@@H](Sc3ccccc3)O[C@H](C[N+]3=C4CCCCCN4CCC3)[C@H]2OCc2ccc3ccccc3c2)cc1` [Compound 37], the MIC in experiment [2] and in experiment [3] was greater than 100 µg/mL in each case.

In the case of `CO[C@H]1O[C@H](C[N+]2=C3CCCCCN3CCC2)[C@@H](OCc2ccccc2)[C@H](O)[C@H]1O` [Compound 45, 8-N-[methyl 6-deoxy-6-yl-4-O-benzyl-α-D-glucopyranoside]-1,8-diazabicyclo(5.4.0)undec-7-ene-chloride], in experiment [1], the MIC was greater than 100 µg/mL and the “MIC Staphylococcus aureus (ATCC 6538)” value is greater than 100 µg/mL. Besides, in experiment [2], the MIC is greater than 100 µg/mL and the “MIC Escherichia coli (ATCC 8739)” value is listed as greater than 100 µg/mL. Besides, the MIC in experiment [3] is greater than 100 µg/mL.

As to `O[C@H]1[C@H](OCc2ccccc2)[C@H](OCc2ccccc2)[C@@H](Sc2ccccc2)O[C@@H]1C[N+]1=C2CCCCCN2CCC1` [Compound 50, 8-N-[phenyl 2,3-di-O-benzyl-6-deoxy-6-yl-1-thio-α-D-mannopyranoside]-1,8-diazabicyclo(5.4.0)undec-7-ene-chloride], in experiment [2], the MIC is greater than 100 µg/mL.

As for `CCS[C@H]1O[C@H](C[N+]2=C3CCCCCN3CCC2)[C@@H](OCc2ccc3ccccc3c2)[C@H](OC(=O)c2ccccc2)[C@H]1OC(=O)c1ccccc1` [Compound 11], in experiment [1], the MIC is greater than 100 µg/mL and the “MIC Staphylococcus aureus (ATCC 6538)” value is recorded as greater than 100 µg/mL. Further, in experiment [2], the MIC is greater than 100 µg/mL and the “MIC Escherichia coli (ATCC 8739)” value is greater than 100 µg/mL. Moreover, the MIC in experiment [3] was greater than 100 µg/mL.

On to `O[C@@H]1[C@H](OCc2ccccc2)[C@@H](Sc2ccccc2)O[C@H](C[N+]2=C3CCCCCN3CCC2)[C@H]1OCc1ccccc1` [Compound 49, 8-N-[phenyl 2,4-di-O-benzyl-6-deoxy-6-yl-1-thio-α-D-mannopyranoside]-1,8-diazabicyclo(5.4.0)undec-7-ene-chloride], for which, in experiment [1], the MIC was greater than 100 µg/mL and the “MIC Staphylococcus aureus (ATCC 6538)” value is reported as greater than 100 µg/mL. Besides, in experiment [2], the MIC was greater than 100 µg/mL and the “MIC Escherichia coli (ATCC 8739)” value is on record as greater than 100 µg/mL. Further, the MIC in experiment [3] was greater than 100 µg/mL.

For `O[C@H]1[C@@H](OCc2ccccc2)[C@H](OCc2ccc3ccccc3c2)[C@@H](C[N+]2=C3CCCCCN3CCC2)O[C@@H]1Sc1ccccc1` [Compound 53, 8-N-[phenyl 3-O-benzyl-6-deoxy-6-yl-4-O-(2′-naphthyl)methyl-1-thio-α-D-mannopyranoside]-1,8-diazabicyclo(5.4.0)undec-7-ene-acetate], the MIC was 6.25 to 50 µg/mL in experiment [1], greater than 100 µg/mL in experiment [2] and 6.25 to 50 µg/mL in experiment [3].

As for `O[C@@H]1[C@H](O)[C@@H](Sc2ccccc2)O[C@H](C[N+]2=C3CCCCCN3CCC2)[C@H]1OCc1ccc2ccccc2c1` [Compound 51, 8-N-[phenyl 6-deoxy-6-yl-4-O-(2′-naphthyl)methyl-1-thio-α-D-mannopyranoside]-1,8-diazabicyclo(5.4.0)undec-7-ene-chloride], the figures for the MIC in experiment [1] and in experiment [2] were 6.25 to 50 µg/mL and greater than 100 µg/mL, respectively.

Consider `O=C(O[C@@H]1[C@H](OC(=O)c2ccccc2)[C@@H](Sc2ccccc2)O[C@H](C[N+]2=C3CCCCCN3CCC2)[C@H]1OCc1ccc2ccccc2c1)c1ccccc1` [Compound 23], for which the MIC in experiment [1], in experiment [2] and in experiment [3] was greater than 100 µg/mL throughout.

As for `O=C(O[C@H]1[C@@H](OCc2ccccc2)[C@H](OCc2ccc3ccccc3c2)[C@@H](C[N+]2=C3CCCCCN3CCC2)O[C@@H]1Sc1ccccc1)c1ccccc1` [Compound 24], the MIC was 6.25 to 50 µg/mL in experiment [1] and no less than 100 µg/mL in experiment [2].
